Test results from US7138361B2, “Herbicidal heterocycles” (E. I. du Pont de Nemours and Company, priority 2000, dated 2006).

Key:
Type in all cases: in vivo
[1] = test system: velvetleaf (Abutilon theophrasti); experiment: Test B postemergence; details: 13 to 15 days
Procedure, shortened: (§1)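 Visual injury scores, 0 = no effect to 100 = complete control, assigned against controls after 13 to 15 days in the greenhouse. Compounds formulated in non-phytotoxic solvent plus surfactant and applied to soil after planting (pre) or onto foliage of 1- to 4-leaf plants (post).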

[2] = test system: pigweed (Amaranthus retroflexus); experiment: Test B postemergence; details: 13 to 15 days
Procedure, shortened: as §1

[3] = test system: lambsquarters (Chenopodium album); experiment: Test B postemergence; details: 13 to 15 days
Procedure, shortened: as §1

[4] = test system: giant foxtail (Setaria faberii); experiment: Test B postemergence; details: 13 to 15 days
Procedure, shortened: as §1

[5] = test system: wheat (Triticum aestivum); experiment: Test B postemergence; details: 13 to 15 days
Procedure, shortened: as §1

wild oat (Avena fatua) = experiment: Test B postemergence; details: 13 to 15 days
Procedure, shortened: as §1

corn (Zea mays) [6] = experiment: Test B postemergence; details: 13 to 15 days
Procedure, shortened: as §1

[7] = test system: blackgrass (Alopecurus myosuroides); experiment: Test B postemergence; details: 13 to 15 days
Procedure, shortened: as §1

[8] = test system: morning glory (Ipomoea hederacea); experiment: Test B postemergence; details: 13 to 15 days
Procedure, shortened: as §1

[9] = test system: crabgrass (Digitaria sanguinalis); experiment: Test B postemergence; details: 13 to 15 days
Procedure, shortened: as §1

[10] = test system: Surinam grass (Brachiaria decumbens); experiment: Test B postemergence; details: 13 to 15 days
Procedure, shortened: as §1

[11] = test system: cocklebur (Xanthium strumarium); experiment: Test B postemergence; details: 13 to 15 days
Procedure, shortened: as §1

[12] = test system: barnyardgrass (Echinochloa crus-galli); experiment: Test B postemergence; details: 13 to 15 days
Procedure, shortened: as §1

Sunflower [13] = experiment: Test C preemergence; details: visual evaluation after 12 to 14 days
[14] = test system: yellow nutsedge (Cyperus esculentus); experiment: Test C preemergence; details: for Plant response rating (0 to 100), Nutsedge: visual evaluation after 12 to 14 days
Procedure, shortened: (§2)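 Herbicidal effect is a visual 0–100 score (100 = complete control) assigned versus untreated plants, 12 to 14 days after spraying in the greenhouse. Test compounds were applied in a non-phytotoxic, surfactant-containing solvent.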

[15] = test system: velvetleaf (Abutilon theophrasti); experiment: Test C preemergence; details: for Plant response rating (0 to 100), Velvetleaf: visual evaluation after 12 to 14 days
Procedure, shortened: as §2

[16] = test system: bermudagrass (Cynodon dactylon); experiment: Test C preemergence; details: for Plant response rating (0 to 100 where 0 is no effect and 100 is complete control), Bermudagrass: visual evaluation after 12 to 14 days
Procedure, shortened: as §2

[17] = test system: giant foxtail (Setaria faberii); experiment: Test C preemergence; details: for Plant response rating (0 to 100), Foxtail, Giant: visual evaluation after 12 to 14 days
Procedure, shortened: as §2

corn (Zea mays) [18] = experiment: Test C preemergence; details: for Plant response rating (0 to 100), Corn: visual evaluation after 12 to 14 days
Procedure, shortened: as §2

Sunflower [19] = experiment: Test C preemergence
[20] = test system: morningglory (Ipomoea hederacea); experiment: Test C preemergence; details: for Plant response rating (0 to 100), Morningglory: visual evaluation after 12 to 14 days
Procedure, shortened: as §2

[21] = test system: johnsongrass (Sorghum halepense); experiment: Test C preemergence; details: for Plant response rating (0 to 100), Johnsongrass: visual evaluation after 12 to 14 days
Procedure, shortened: as §2

kochia (Kochia scoparia) = experiment: Test C preemergence; details: for Plant response rating (0 to 100), Kochia: visual evaluation after 12 to 14 days
Procedure, shortened: as §2

[22] = Rate 125 g/ha, scale 0 (no effect) to 100 (complete control)
[23] = Rate 500 g/ha, scale 0 to 100, 0 is no effect, 100 is complete control
[24] = Rate 62 g/ha, scale 0 to 100, 0 no effect, 100 complete control
[25] = Rate 125 g/ha, scale 0 to 100, 0 no effect, 100 complete control
[26] = preemergence, Rate 250 g/ha, scale 0 to 100, 0 no effect, 100 complete control
[27] = Preemergence, Rate 500 g/ha, scale 0 to 100
[28] = preemergence, Rate 31 g/ha, scale 0 to 100
[29] = preemergence, Rate 125 g/ha, scale 0 to 100, 0 no effect, 100 complete control

CCC(C)c1ccn(C2CCN(c3ccc(C)c(OC)c3)C2=O)n1 (centres unmarked) [Compound 80]
Plant response rating, Velvetleaf [1, 22]: 40 | Plant response rating, Velvetleaf [1, 23]: 70 | Plant response rating, Pigweed [2, 22]: 70 | Plant response rating, Pigweed [2, 23]: 80 | Plant response rating, Lambsquarters [3, 22]: 10 | Plant response rating, Lambsquarters [3, 23]: 90 | Plant response rating, Foxtail, Giant [4, 22]: 0 | Plant response rating, Foxtail, Giant [4, 23]: 0 | Plant response rating, Wheat [5, 22]: 0 | Plant response rating, Wheat [5, 23]: 0 | Plant response rating, Wild Oat (wild oat (Avena fatua); [22]): 0 | Plant response rating, Wild Oat (wild oat (Avena fatua); [23]): 0 | Plant response rating, Corn (corn (Zea mays) [6]; [22]): 0 | Plant response rating, Corn (corn (Zea mays) [6]; [23]): 0 | Plant response rating, Blackgrass [7, 22]: 0 | Plant response rating, Blackgrass [7, 23]: 0 | Plant response rating, Morningglory [8, 22]: 40 | Plant response rating, Morningglory [8, 23]: 90 | Plant response rating, Crabgrass [9, 22]: 0 | Plant response rating, Crabgrass [9, 23]: 40 | Plant response rating, Surinam grass [10, 22]: 0 | Plant response rating, Surinam grass [10, 23]: 0 | Plant response rating, Cocklebur [11, 22]: 70 | Plant response rating, Cocklebur [11, 23]: 80 | Plant response rating, Barnyardgrass [12, 22]: 0 | Plant response rating, Barnyardgrass [12, 23]: 10 | Plant response rating (0 to 100), Sunflower (Sunflower [13]; Rate 500 g/ha): 60 | Plant response rating, Nutsedge [14, 24]: 0 | Plant response rating, Nutsedge [14, 25]: 20 | Plant response rating (0 to 100), Nutsedge ([14]; preemergence, Rate 500 g/ha): 0 | Plant response rating, Nutsedge [14, 26]: 0 | Plant response rating, Velvetleaf [15, 25]: 40 | Plant response rating (0 to 100), Velvetleaf ([15]; preemergence, Rate 500 g/ha): 100 | Plant response rating, Velvetleaf [15, 26]: 70 | Plant response rating, Bermudagrass [16, 24]: 100 | Plant response rating, Bermudagrass [16, 25]: 100 | Plant response rating (0 to 100 where 0 is no effect and 100 is complete control), Bermudagrass ([16]; preemergence, Rate 250 g/ha): 100 | Plant response rating (0 to 100 where 0 is no effect and 100 is complete control), Bermudagrass ([16]; preemergence, Rate 500 g/ha): 100 | Plant response rating, Foxtail, Giant [17, 24]: 0 | Plant response rating, Foxtail, Giant [17, 25]: 100 | Plant response rating (0 to 100), Foxtail, Giant ([17]; preemergence, Rate 250 g/ha): 40 | Plant response rating (0 to 100), Foxtail, Giant ([17]; preemergence, Rate 500 g/ha): 50 | Plant response rating, Corn (corn (Zea mays) [18]; [24]): 0 | Plant response rating, Corn (corn (Zea mays) [18]; [25]): 30 | Plant response rating (0 to 100), Corn (corn (Zea mays) [18]; preemergence, Rate 250 g/ha): 0 | Plant response rating (0 to 100), Corn (corn (Zea mays) [18]; preemergence, Rate 500 g/ha): 60 | Plant response rating, Sunflower (Sunflower [19]; [25]): 30 | Plant response rating, Morningglory [20, 24]: 0 | Plant response rating, Morningglory [20, 25]: 20 | Plant response rating (0 to 100), Morningglory ([20]; preemergence, Rate 500 g/ha): 100 | Plant response rating, Morningglory [20, 26]: 100 | Plant response rating, Johnsongrass [21, 24]: 20 | Plant response rating, Johnsongrass [21, 25]: 60 | Plant response rating (0 to 100), Johnsongrass ([21]; preemergence, Rate 250 g/ha): 60 | Plant response rating (0 to 100), Johnsongrass ([21]; preemergence, Rate 500 g/ha): 70 | Plant response rating, Kochia (kochia (Kochia scoparia); [24]): 100 | Plant response rating, Kochia (kochia (Kochia scoparia); [25]): 100 | Plant response rating (0 to 100), Kochia (kochia (Kochia scoparia); preemergence, Rate 250 g/ha): 100 | Plant response rating (0 to 100), Kochia (kochia (Kochia scoparia); preemergence, Rate 500 g/ha): 100

CC(C)(C)c1ccn(C2CCN(c3cccc(OC(F)(F)F)c3)C2=O)n1 (centres unmarked) [Compound 49]
Plant response rating, Velvetleaf [1, 22]: 0 | Plant response rating, Velvetleaf [1, 23]: 40 | Plant response rating, Pigweed [2, 22]: 30 | Plant response rating, Pigweed [2, 23]: 30 | Plant response rating, Lambsquarters [3, 22]: 30 | Plant response rating, Lambsquarters [3, 23]: 50 | Plant response rating, Foxtail, Giant [4, 22]: 0 | Plant response rating, Foxtail, Giant [4, 23]: 0 | Plant response rating, Wheat [5, 22]: 0 | Plant response rating, Wheat [5, 23]: 0 | Plant response rating, Wild Oat (wild oat (Avena fatua); [22]): 0 | Plant response rating, Wild Oat (wild oat (Avena fatua); [23]): 30 | Plant response rating, Corn (corn (Zea mays) [6]; [22]): 0 | Plant response rating, Corn (corn (Zea mays) [6]; [23]): 0 | Plant response rating, Blackgrass [7, 22]: 0 | Plant response rating, Blackgrass [7, 23]: 60 | Plant response rating, Morningglory [8, 22]: 0 | Plant response rating, Morningglory [8, 23]: 30 | Plant response rating, Crabgrass [9, 22]: 0 | Plant response rating, Crabgrass [9, 23]: 40 | Plant response rating, Surinam grass [10, 22]: 0 | Plant response rating, Surinam grass [10, 23]: 90 | Plant response rating, Cocklebur [11, 22]: 0 | Plant response rating, Cocklebur [11, 23]: 30 | Plant response rating, Barnyardgrass [12, 22]: 0 | Plant response rating, Barnyardgrass [12, 23]: 80 | Plant response rating (0 to 100), Sunflower (Sunflower [13]; Rate 250 g/ha): 30 | Plant response rating, Nutsedge [14, 27]: 0 | Plant response rating, Nutsedge [14, 24]: 40 | Plant response rating, Nutsedge [14, 28]: 30 | Plant response rating (0 to 100), Nutsedge ([14]; preemergence, Rate 250 g/ha): 0 | Plant response rating, Nutsedge [14, 29]: 50 | Plant response rating, Velvetleaf [15, 27]: 40 | Plant response rating, Velvetleaf [15, 24]: 0 | Plant response rating, Velvetleaf [15, 28]: 0 | Plant response rating (0 to 100), Velvetleaf ([15]; preemergence, Rate 250 g/ha): 30 | Plant response rating, Velvetleaf [15, 29]: 0 | Plant response rating, Bermudagrass [16, 27]: 100 | Plant response rating, Bermudagrass [16, 24]: 100 | Plant response rating, Bermudagrass [16, 28]: 0 | Plant response rating (0 to 100 where 0 is no effect and 100 is complete control), Bermudagrass ([16]; preemergence, Rate 250 g/ha): 100 | Plant response rating, Bermudagrass [16, 29]: 100 | Plant response rating, Foxtail, Giant [17, 27]: 100 | Plant response rating, Foxtail, Giant [17, 24]: 0 | Plant response rating, Foxtail, Giant [17, 28]: 0 | Plant response rating (0 to 100), Foxtail, Giant ([17]; preemergence, Rate 250 g/ha): 100 | Plant response rating, Foxtail, Giant [17, 29]: 100 | Plant response rating, Corn (corn (Zea mays) [18]; [27]): 0 | Plant response rating, Corn (corn (Zea mays) [18]; [24]): 0 | Plant response rating, Corn (corn (Zea mays) [18]; [28]): 0 | Plant response rating (0 to 100), Corn (corn (Zea mays) [18]; preemergence, Rate 250 g/ha): 0 | Plant response rating, Corn (corn (Zea mays) [18]; [29]): 0 | Plant response rating, Sunflower (Sunflower [19]; [24]): 20 | Plant response rating, Sunflower (Sunflower [19]; Rate 500 g/ha, scale 0 to 100): 80 | Plant response rating, Morningglory [20, 27]: 30 | Plant response rating, Morningglory [20, 24]: 0 | Plant response rating, Morningglory [20, 28]: 0 | Plant response rating (0 to 100), Morningglory ([20]; preemergence, Rate 250 g/ha): 0 | Plant response rating, Morningglory [20, 29]: 0 | Plant response rating, Johnsongrass [21, 27]: 90 | Plant response rating, Johnsongrass [21, 24]: 0 | Plant response rating, Johnsongrass [21, 28]: 0 | Plant response rating (0 to 100), Johnsongrass ([21]; preemergence, Rate 250 g/ha): 50 | Plant response rating, Johnsongrass [21, 29]: 0 | Plant response rating, Kochia (kochia (Kochia scoparia); [27]): 100 | Plant response rating, Kochia (kochia (Kochia scoparia); [24]): 90 | Plant response rating, Kochia (kochia (Kochia scoparia); [28]): 50 | Plant response rating (0 to 100), Kochia (kochia (Kochia scoparia); preemergence, Rate 250 g/ha): 100 | Plant response rating, Kochia (kochia (Kochia scoparia); [29]): 90
